Assay results as given in PubChem BioAssay AID248 (DTP/NCI, 2004).
Values joined by “and” are separate entries in the source; they are usually repeats but may differ in a detail not shown here. Identical values can stand only once. Toxic doses and inconclusive results are not listed. Cut-off read from the data, not from the text of the source: active = T/C of 150% or more; inactive = T/C below 125%.

System: L1210 leukemia ip in BDF1 mice, survival T/C
Assay: NCI In Vivo Anticancer Drug Screen. Data for tumor model L1210 Leukemia (intraperitoneal) in B6D2F1 (BDF1) mice
Settings: higher = longer survival
In short: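 Tumor was transplanted into mice, which were then dosed with test compound or vehicle alone. Survival was recorded for each group, and the treated figure was expressed relative to the control figure.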

Measured: T/C

O=NN(CCCl)C(=O)NCCCl
inactive: endpoint: mean survival time, dose: 0.09 mg/kg/injection, schedule: Q01DX009 (ip), vehicle: saline 96 % of control | endpoint: mean survival time, dose: 0.09 mg/kg/injection, schedule: Q01DX009 (oral), vehicle: saline 100 % of control | endpoint: mean survival time, dose: 0.09 mg/kg/injection, schedule: Q## X024 (oral), vehicle: saline 102 % of control | endpoint: mean survival time, dose: 0.18 mg/kg/injection, schedule: Q01DX005 (ip), vehicle: saline 94 % of control | endpoint: mean survival time, dose: 0.18 mg/kg/injection, schedule: Q01DX009 (ip), vehicle: saline 101 % of control | endpoint: mean survival time, dose: 0.18 mg/kg/injection, schedule: Q01DX009 (oral), vehicle: saline 102 % of control | endpoint: mean survival time, dose: 0.18 mg/kg/injection, schedule: Q## X008 (ip), vehicle: saline 102 % of control | endpoint: mean survival time, dose: 0.18 mg/kg/injection, schedule: Q## X024 (oral), vehicle: saline 98 % of control | endpoint: mean survival time, dose: 0.32 mg/kg/injection, schedule: Q01DX001 (ip), vehicle: other 98 % of control | endpoint: mean survival time, dose: 0.36 mg/kg/injection, schedule: Q01DX Z (ip), vehicle: carboxymethylcellulose (CMC) 104 % of control | endpoint: mean survival time, dose: 0.37 mg/kg/injection, schedule: Q01DX001 (ip), vehicle: saline 104 % of control | endpoint: mean survival time, dose: 0.37 mg/kg/injection, schedule: Q01DX005 (ip), vehicle: saline 103 % of control | endpoint: mean survival time, dose: 0.37 mg/kg/injection, schedule: Q01DX005 (oral), vehicle: saline 93 % of control | endpoint: mean survival time, dose: 0.37 mg/kg/injection, schedule: Q01DX009 (ip), vehicle: saline 101 % of control | endpoint: mean survival time, dose: 0.37 mg/kg/injection, schedule: Q01DX009 (oral), vehicle: saline 97 % of control | endpoint: mean survival time, dose: 0.37 mg/kg/injection, schedule: Q01DX009 (sc), vehicle: saline 97 % of control | endpoint: mean survival time, dose: 0.37 mg/kg/injection, schedule: Q01DX015 (ip), vehicle: saline 115 % of control | endpoint: mean survival time, dose: 0.37 mg/kg/injection, schedule: Q## X003 (ip), vehicle: saline 107 % of control | endpoint: mean survival time, dose: 0.37 mg/kg/injection, schedule: Q## X008 (ip), vehicle: saline 109 % of control | endpoint: mean survival time, dose: 0.37 mg/kg/injection, schedule: Q## X024 (ip), vehicle: saline 110 % of control | endpoint: mean survival time, dose: 0.37 mg/kg/injection, schedule: Q## X024 (oral), vehicle: saline 100 % of control | endpoint: mean survival time, dose: 0.45 mg/kg/injection, schedule: Q01DX009 (ip), vehicle: saline + alcohol 99 % of control and 107 % of control | endpoint: mean survival time, dose: 0.63 mg/kg/injection, schedule: Q01DX001 (ip), vehicle: other 107 % of control | endpoint: mean survival time, dose: 0.73 mg/kg/injection, schedule: Q01DX Z (ip), vehicle: carboxymethylcellulose (CMC) 107 % of control | endpoint: mean survival time, dose: 0.75 mg/kg/injection, schedule: Q01DX001 (ip), vehicle: saline 105 % of control | endpoint: mean survival time, dose: 0.75 mg/kg/injection, schedule: Q01DX001 (sc), vehicle: saline 105 % of control | endpoint: mean survival time, dose: 0.75 mg/kg/injection, schedule: Q01DX005 (ip), vehicle: saline 108 % of control | endpoint: mean survival time, dose: 0.75 mg/kg/injection, schedule: Q01DX005 (oral), vehicle: saline 101 % of control | endpoint: mean survival time, dose: 0.75 mg/kg/injection, schedule: Q01DX009 (oral), vehicle: saline 116 % of control | endpoint: mean survival time, dose: 0.75 mg/kg/injection, schedule: Q01DX009 (sc), vehicle: saline 104 % of control | endpoint: mean survival time, dose: 0.75 mg/kg/injection, schedule: Q## X003 (ip), vehicle: saline 108 % of control | endpoint: mean survival time, dose: 0.75 mg/kg/injection, schedule: Q## X008 (ip), vehicle: saline 114 % of control | endpoint: mean survival time, dose: 0.75 mg/kg/injection, schedule: Q## X024 (oral), vehicle: saline 113 % of control | endpoint: mean survival time, dose: 1.0 mg/kg/injection, schedule: Q01DX Z (oral), vehicle: saline 117 % of control | endpoint: mean survival time, dose: 1.0 mg/kg/injection, schedule: Q04DX002 (ip), vehicle: saline + alcohol 105 % of control and 107 % of control | endpoint: mean survival time, dose: 1.0 mg/kg/injection, schedule: Q04DX004 (ip), vehicle: saline 106 % of control | endpoint: mean survival time, dose: 1.25 mg/kg/injection, schedule: Q01DX001 (ip), vehicle: other 101 % of control | endpoint: mean survival time, dose: 1.5 mg/kg/injection, schedule: Q01DX001 (ip), vehicle: saline 107 % of control | endpoint: mean survival time, dose: 1.5 mg/kg/injection, schedule: Q01DX001 (sc), vehicle: saline 107 % of control | endpoint: mean survival time, dose: 1.5 mg/kg/injection, schedule: Q01DX005 (oral), vehicle: saline 103 % of control | endpoint: mean survival time, dose: 1.5 mg/kg/injection, schedule: Q## X003 (ip), vehicle: saline 112 % of control | endpoint: mean survival time, dose: 1.75 mg/kg/injection, schedule: Q07DX Z (oral), vehicle: saline 105 % of control | endpoint: mean survival time, dose: 2.0 mg/kg/injection, schedule: Q01DX001 (ip), vehicle: Klucel (hydroxypropylcellulose) (HPC) 110 % of control | endpoint: mean survival time, dose: 2.0 mg/kg/injection, schedule: Q01DX001 (ip), vehicle: distilled water + alcohol 107 % of control | endpoint: mean survival time, dose: 2.0 mg/kg/injection, schedule: Q01DX001 (ip), vehicle: other 107 % of control and 111 % of control | endpoint: mean survival time, dose: 2.0 mg/kg/injection, schedule: Q01DX006 (iv), vehicle: saline 115 % of control | endpoint: mean survival time, dose: 2.0 mg/kg/injection, schedule: Q04DX002 (ip), vehicle: saline + alcohol 114 % of control | endpoint: mean survival time, dose: 2.0 mg/kg/injection, schedule: Q04DX004 (ip), vehicle: saline 118 % of control | endpoint: mean survival time, dose: 2.5 mg/kg/injection, schedule: Q01DX001 (ip), vehicle: other 114 % of control | endpoint: mean survival time, dose: 3.0 mg/kg/injection, schedule: Q01DX001 (ip), vehicle: saline 112 % of control | endpoint: mean survival time, dose: 3.0 mg/kg/injection, schedule: Q03DX Z (oral), vehicle: saline 117 % of control | endpoint: mean survival time, dose: 3.0 mg/kg/injection, schedule: Q## X003 (oral), vehicle: saline 112 % of control | endpoint: mean survival time, dose: 3.12 mg/kg/injection, schedule: Q01DX001 (ip), vehicle: saline 101 % of control and 106 % of control | endpoint: mean survival time, dose: 3.5 mg/kg/injection, schedule: Q07DX Z (oral), vehicle: saline 111 % of control | endpoint: mean survival time, dose: 5.0 mg/kg/injection, schedule: Q07DX003 (ip), vehicle: saline 104 % of control | endpoint: mean survival time, dose: 6.25 mg/kg/injection, schedule: Q01DX001 (ip), vehicle: saline 108 % of control and 110 % of control | endpoint: mean survival time, dose: 6.75 mg/kg/injection, schedule: Q03HX032 (ip), vehicle: saline + alcohol 103 % of control | endpoint: mean survival time, dose: 6.75 mg/kg/injection, schedule: Q## X032 (ip), vehicle: saline + alcohol 103 % of control | endpoint: mean survival time, dose: 12.0 mg/kg/injection, schedule: Q## X Z (ip), vehicle: saline 103 % of control | endpoint: mean survival time, dose: 12.5 mg/kg/injection, schedule: Q01DX001 (ip), vehicle: saline 118 % of control | endpoint: mean survival time, dose: 16.0 mg/kg/injection, schedule: Q01DX009 (ip), vehicle: carboxymethylcellulose (CMC) 102 % of control | endpoint: mean survival time, dose: 18.0 mg/kg/injection, schedule: Q## X006 (ip), vehicle: saline 116 % of control | endpoint: mean survival time, dose: 24.0 mg/kg/injection, schedule: Q01DX005 (ip), vehicle: saline 106 % of control | endpoint: mean survival time, dose: 24.0 mg/kg/injection, schedule: Q01DX005 (oral), vehicle: saline 119 % of control | endpoint: mean survival time, dose: 24.0 mg/kg/injection, schedule: Q01DX006 (ip), vehicle: saline 109 % of control | endpoint: mean survival time, dose: 24.0 mg/kg/injection, schedule: Q01DX009 (ip), vehicle: saline 117 % of control | endpoint: mean survival time, dose: 24.0 mg/kg/injection, schedule: Q01DX009 (oral), vehicle: saline 116 % of control | endpoint: mean survival time, dose: 24.0 mg/kg/injection, schedule: Q01DX009 (sc), vehicle: saline 117 % of control | endpoint: mean survival time, dose: 36.0 mg/kg/injection, schedule: Q01DX006 (ip), vehicle: saline 98 % of control | endpoint: mean survival time, dose: 40.0 mg/kg/injection, schedule: Q04DX004 (ip), vehicle: saline 94 % of control | endpoint: mean survival time, dose: 48.0 mg/kg/injection, schedule: Q01DX001 (ip), vehicle: Klucel (hydroxypropylcellulose) (HPC) 116 % of control | endpoint: mean survival time, dose: 48.0 mg/kg/injection, schedule: Q01DX006 (ip), vehicle: saline 94 % of control | endpoint: mean survival time, dose: 48.0 mg/kg/injection, schedule: Q## X024 (ip), vehicle: saline 119 % of control | endpoint: mean survival time, dose: 62.0 mg/kg/injection, schedule: Q04DX002 (ip), vehicle: saline + alcohol 107 % of control and 111 % of control | endpoint: mean survival time, dose: 64.0 mg/kg/injection, schedule: Q01DX Z (oral), vehicle: saline 94 % of control | endpoint: mean survival time, dose: 79.0 mg/kg/injection, schedule: Q01DX001 (oral), vehicle: saline 118 % of control | endpoint: mean survival time, dose: 88.0 mg/kg/injection, schedule: Q01DX001 (ip), vehicle: other 116 % of control | endpoint: mean survival time, dose: 96.0 mg/kg/injection, schedule: Q03DX Z (oral), vehicle: saline 108 % of control | endpoint: mean survival time, dose: 112.0 mg/kg/injection, schedule: Q07DX Z (oral), vehicle: saline 106 % of control | endpoint: mean survival time, dose: 128.0 mg/kg/injection, schedule: Q01DX001 (ip), vehicle: Klucel (hydroxypropylcellulose) (HPC) 106 % of control | endpoint: mean survival time, dose: 128.0 mg/kg/injection, schedule: Q01DX001 (ip), vehicle: other 98 % of control | endpoint: mean survival time, dose: 256.0 mg/kg/injection, schedule: Q01DX001 (ip), vehicle: Klucel (hydroxypropylcellulose) (HPC) 96 % of control | endpoint: mean survival time, dose: 256.0 mg/kg/injection, schedule: Q01DX001 (ip), vehicle: other 104 % of control | endpoint: median survival time, dose: 0.75 mg/kg/injection, schedule: Q01DX009 (ip), vehicle: saline 105 % of control | endpoint: median survival time, dose: 1.25 mg/kg/injection, schedule: Q01DX009 (ip), vehicle: saline 100 % of control and 112 % of control | endpoint: median survival time, dose: 24.0 mg/kg/injection, schedule: Q01DX009 (ip), vehicle: saline 95 % of control | endpoint: median survival time, dose: 30.0 mg/kg/injection, schedule: Q01DX005 (ip), vehicle: saline + alcohol 94 % of control and 102 % of control | endpoint: median survival time, dose: 30.0 mg/kg/injection, schedule: Q01DX009 (ip), vehicle: saline + alcohol 93 % of control
